This is an account of results in article PMC8837603, “Lapcin, a potent dual topoisomerase I/II inhibitor discovered by soil metagenome guided total chemical synthesis” (Nature Communications, 2022).

pIC50: −log10 of the molar value.

In test [1] the target is T1, Human Topo II (Homo sapiens, UniProt P11388).
T1 construct: purchased TopoGen, USA
Description: Human Topoisomerase II DNA decatenation assay. In kind it is biochemical.
Description: The decatenation assay was conducted using a Human Topo II decatenation kit (TopoGen, USA). […] Assays were performed according to the manufacturer’s protocol. Briefly, on ice, 19 µL of master mixture was prepared by adding 4 µL of freshly prepared 5 x assay buffer (0.5 M Tris-HCl pH8.0, 1.50 M NaCl, 100 mM MgCl2, 5 mM Dithiothreitol, 300 µg/mL BSA, 20 mM ATP), 1 µL of 200 ng/µL kDNA and 5 µL of serial diluted assay compounds in 200 µL reaction tubes. 1 µL of fresh diluted topoisomerase II (1U) was then added to each reaction tube. The total reaction volume was adjusted to 20 µL with H2O. These reactions were incubated at 37 °C for 30 min and stopped by addition of 4 µL of 5 x Stop Buffer (TopoGen, USA). Samples were loaded directly onto a 1% (w/v) agarose gel containing 0.5 µg/ml ethidium bromide and separated at 140 v for 1 hour in 0.5% TBE buffer. The intensity of released (decatenated) circular rings was quantified using Analytik Jena image software. All values were normalized to the negative control wells. The intensity of decatenated band was used in the determination of IC50 of tested compounds and the curve was drawn in Prism 9 (9.0.0). All experiments were performed in triplicate (n = 3).

Test [2] concerns Hela (Cervical) cells. The test can be described thus: cells. The class given is cell-based, human. The following applies: cervical cancer; MTT, 48 h, 37 °C; DMEM + 10% FBS; 2,500 cells/well; absorbance 570 nm; n = 3 biologically independent. The method, then:
(§1) An MTT (2-(4,5-dimethylthiazol-2-yl)−2,5-diphenyltetrazolium bromide) assay was used to determine the cytotoxicity of lapcin towards diverse cancer cell lines. Lapcin was dissolved in DMSO to make a 3.2 mg/mL working solution. For each cancer line detailed in Supplementary Table 5, cells at 80-90% confluency were counted and seeded in 96-well, flat bottom microplates and incubated at 37 °C with a 5% CO2 atmosphere. Outer wells were unused to avoid edge effects. After adhering for 24 h, the medium was sterilely aspirated and replaced with 100 µL of fresh medium containing lapcin or a control compound serially diluted at concentrations ranging from 8,000 to 0.00382 ng/mL. After 48 h (37 °C, 5% CO2), the medium was carefully removed and 110 µL of freshly prepared MTT solution (10 µL of 5 mg/mL MTT in PBS (pH 7.4) premixed with 100 µL of complete medium) was added to each well. After 3 h at 37 °C with 5% CO2, 100 µL of solubilization solution (40% DMF, 16% SDS and 2% acetic acid in H2O) was added to each well and precipitated formazan crystals were allowed to dissolve for 4 h. The absorbance of each well was then measured at 570 nm using a Tecan microplate reader.

For test [3], the system named is NCI-H1299 cells. The test can be described thus: cells. In kind it is cell-based, human. The following applies: lung cancer; MTT, 48 h, 37 °C; RPMI-1640 + 10% FBS; 2,500 cells/well; absorbance 570 nm; n = 3 biologically independent. The method, then: as §1
The subject of test [4] is A549 cells. Description: cells. In kind it is cell-based, human. The following applies: lung cancer; MTT, 48 h, 37 °C; DMEM + 10% FBS + NEAA; 2,500 cells/well; absorbance 570 nm; n = 3 biologically independent. The method, then:
as §1

For test [5], the system named is Colo205 cells. The test can be described thus: cells. The following applies: colon cancer; MTT, 48 h, 37 °C; RPMI-1640 + 10% FBS; 2,500 cells/well; absorbance 570 nm; n = 3 biologically independent. The class given is cell-based, human. The protocol:
as §1

For test [6], the target named is T2, Human Topoisomerase I (Homo sapiens, UniProt P11387).
T2 construct: purchased Inspiralis, UK
T2 sequence (P11387 1-765): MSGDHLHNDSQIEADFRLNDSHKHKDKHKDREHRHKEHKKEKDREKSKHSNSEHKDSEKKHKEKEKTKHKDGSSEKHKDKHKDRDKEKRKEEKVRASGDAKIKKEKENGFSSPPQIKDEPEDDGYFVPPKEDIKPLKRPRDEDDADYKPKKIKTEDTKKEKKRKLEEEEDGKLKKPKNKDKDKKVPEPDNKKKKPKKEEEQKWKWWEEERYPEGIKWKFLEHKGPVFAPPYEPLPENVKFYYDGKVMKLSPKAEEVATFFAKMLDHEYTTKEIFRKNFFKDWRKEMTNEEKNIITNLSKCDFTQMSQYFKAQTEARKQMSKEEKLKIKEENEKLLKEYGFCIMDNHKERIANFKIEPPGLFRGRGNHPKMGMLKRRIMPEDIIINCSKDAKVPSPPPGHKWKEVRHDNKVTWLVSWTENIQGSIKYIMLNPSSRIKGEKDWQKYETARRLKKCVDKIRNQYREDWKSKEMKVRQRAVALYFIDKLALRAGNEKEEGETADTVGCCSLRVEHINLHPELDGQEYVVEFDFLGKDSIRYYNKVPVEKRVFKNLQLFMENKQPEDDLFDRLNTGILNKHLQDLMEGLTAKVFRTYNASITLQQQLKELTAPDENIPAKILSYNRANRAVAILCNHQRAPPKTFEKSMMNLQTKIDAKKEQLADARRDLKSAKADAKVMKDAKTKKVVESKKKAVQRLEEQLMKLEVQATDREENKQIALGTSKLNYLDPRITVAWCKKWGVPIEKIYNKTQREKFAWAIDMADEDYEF
The test can be described thus: Topoisomerase I DNA cleavage assay. In kind it is biochemical. The following applies: supercoil pBR322, 30 min, 37 °C; nick DNA; two independent times. The method, then: Topoisomerase I/II cleavage assay: A commercial Human topoisomerase cleavage assay kit (Inspiralis, UK) was used in this study with a slight modification. Camptothecin (Sigma, USA) and Etoposide (Sigma, USA) were used as the positive control for topoisomerase I cleavage assay and topoisomerase II cleavage assay, respectively. The assay was performed according to the manufacture’s protocol. Briefly, 29 µL of the master mixture was prepared by adding 3 µL of 10 x assay buffer, 1 µL of 1 µg/µL supercoil pBR322, 1 µL of 30 mM ATP (only used in topoisomerase II cleavage assay), 1.5 µL serial diluted compounds (dissolved in DMSO) and H2O. Finally, 1 µL of 10 U/µL human topoisomerase I/II alpha was added to the reaction mixture. The reaction was incubated for 30 minutes at 37℃. After incubation, 3 µL of 2% (w/v) SDS and 1.5 µL of 10 mg/mL proteinase K was added. The reaction was mixed briefly and incubated for another 30 minutes at 37 ℃. The reaction was stopped by added 10 µL of H2O, 40 µL of STEB stop buffer and 40 µL of Chloroform/isoamyl alcohol (v:v, 24:1). The mixture was vortexed vigorously for 10 secs and centrifuged for 2 minutes. 20 µL of aqueous phase was loaded onto 1% (w/v) agarose gel and separated at 80 V for 2 hours in 0.5% TBE buffer. […]

Test [7] deals with T3, E. coli gyrase (Escherichia coli, UniProt P0AES4+P0AES6).
T3 construct: purchased TopoGen, USA
T3 sequence (P0AES4 whole entry, one chain of several): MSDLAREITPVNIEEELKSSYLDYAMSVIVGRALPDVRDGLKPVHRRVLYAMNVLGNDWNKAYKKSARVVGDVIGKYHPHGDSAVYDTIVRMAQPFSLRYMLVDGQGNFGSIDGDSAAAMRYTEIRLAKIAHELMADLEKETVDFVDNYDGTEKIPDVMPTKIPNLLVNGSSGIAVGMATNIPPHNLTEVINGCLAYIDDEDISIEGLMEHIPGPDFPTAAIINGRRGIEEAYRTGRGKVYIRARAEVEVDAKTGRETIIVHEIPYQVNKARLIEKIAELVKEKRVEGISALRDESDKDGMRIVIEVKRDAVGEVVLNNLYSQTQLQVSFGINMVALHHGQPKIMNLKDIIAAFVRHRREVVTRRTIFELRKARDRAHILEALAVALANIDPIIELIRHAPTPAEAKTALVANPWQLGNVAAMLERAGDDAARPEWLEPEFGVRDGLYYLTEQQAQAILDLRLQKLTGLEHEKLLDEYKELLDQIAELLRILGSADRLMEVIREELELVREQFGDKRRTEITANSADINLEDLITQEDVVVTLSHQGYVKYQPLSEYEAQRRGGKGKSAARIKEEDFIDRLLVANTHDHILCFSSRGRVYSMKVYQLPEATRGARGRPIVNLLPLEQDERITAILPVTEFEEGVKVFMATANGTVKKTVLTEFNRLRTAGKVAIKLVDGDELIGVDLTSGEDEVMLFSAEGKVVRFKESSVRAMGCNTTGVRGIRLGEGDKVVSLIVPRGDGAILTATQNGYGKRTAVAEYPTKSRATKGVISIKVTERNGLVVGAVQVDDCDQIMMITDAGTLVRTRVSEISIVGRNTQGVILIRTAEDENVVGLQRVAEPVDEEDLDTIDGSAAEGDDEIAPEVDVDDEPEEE
Description: DNA gyrase supercoiling assay. The class given is biochemical. The method, then: The DNA gyrase supercoiling assay was conducted with an E. coli gyrase supercoiling kit (TopoGen, USA) in this assay. Ciprofloxacin (Sigma, USA) was used as the positive control. Assay was performed according to the manufacture’s protocol. […] The final volume of the reaction was adjusted to 19 µL with H2O. Finally, 1 µL of fresh diluted E. coli gyrase (1U) was added into the reaction mixture and incubated at 37 °C for 60 min. The reaction was terminated by addition of 2 µL of 10% SDS and 2 µL of 50 µg/mL proteinase K followed by a 30 min at 37 °C. The reaction was then extracted with 20 µL of chloroform/isoamyl alcohol (v:v, 24:1). The aqueous material loaded a on 1% (w/v) agarose gel and separated at 140 v for 1 hour in 0.5% TBE buffer. The gel was visualized using ethidium bromide staining. The intensity of SC plasmid bands was quantified using Analytik Jena image software. The intensity of SC bands was used in the determination of IC50 of tested compounds and the curve were drawn in Prism 9 (9.0.0). The assay was performed in triplicate (n = 3).

T1 sequence (P11388 whole entry): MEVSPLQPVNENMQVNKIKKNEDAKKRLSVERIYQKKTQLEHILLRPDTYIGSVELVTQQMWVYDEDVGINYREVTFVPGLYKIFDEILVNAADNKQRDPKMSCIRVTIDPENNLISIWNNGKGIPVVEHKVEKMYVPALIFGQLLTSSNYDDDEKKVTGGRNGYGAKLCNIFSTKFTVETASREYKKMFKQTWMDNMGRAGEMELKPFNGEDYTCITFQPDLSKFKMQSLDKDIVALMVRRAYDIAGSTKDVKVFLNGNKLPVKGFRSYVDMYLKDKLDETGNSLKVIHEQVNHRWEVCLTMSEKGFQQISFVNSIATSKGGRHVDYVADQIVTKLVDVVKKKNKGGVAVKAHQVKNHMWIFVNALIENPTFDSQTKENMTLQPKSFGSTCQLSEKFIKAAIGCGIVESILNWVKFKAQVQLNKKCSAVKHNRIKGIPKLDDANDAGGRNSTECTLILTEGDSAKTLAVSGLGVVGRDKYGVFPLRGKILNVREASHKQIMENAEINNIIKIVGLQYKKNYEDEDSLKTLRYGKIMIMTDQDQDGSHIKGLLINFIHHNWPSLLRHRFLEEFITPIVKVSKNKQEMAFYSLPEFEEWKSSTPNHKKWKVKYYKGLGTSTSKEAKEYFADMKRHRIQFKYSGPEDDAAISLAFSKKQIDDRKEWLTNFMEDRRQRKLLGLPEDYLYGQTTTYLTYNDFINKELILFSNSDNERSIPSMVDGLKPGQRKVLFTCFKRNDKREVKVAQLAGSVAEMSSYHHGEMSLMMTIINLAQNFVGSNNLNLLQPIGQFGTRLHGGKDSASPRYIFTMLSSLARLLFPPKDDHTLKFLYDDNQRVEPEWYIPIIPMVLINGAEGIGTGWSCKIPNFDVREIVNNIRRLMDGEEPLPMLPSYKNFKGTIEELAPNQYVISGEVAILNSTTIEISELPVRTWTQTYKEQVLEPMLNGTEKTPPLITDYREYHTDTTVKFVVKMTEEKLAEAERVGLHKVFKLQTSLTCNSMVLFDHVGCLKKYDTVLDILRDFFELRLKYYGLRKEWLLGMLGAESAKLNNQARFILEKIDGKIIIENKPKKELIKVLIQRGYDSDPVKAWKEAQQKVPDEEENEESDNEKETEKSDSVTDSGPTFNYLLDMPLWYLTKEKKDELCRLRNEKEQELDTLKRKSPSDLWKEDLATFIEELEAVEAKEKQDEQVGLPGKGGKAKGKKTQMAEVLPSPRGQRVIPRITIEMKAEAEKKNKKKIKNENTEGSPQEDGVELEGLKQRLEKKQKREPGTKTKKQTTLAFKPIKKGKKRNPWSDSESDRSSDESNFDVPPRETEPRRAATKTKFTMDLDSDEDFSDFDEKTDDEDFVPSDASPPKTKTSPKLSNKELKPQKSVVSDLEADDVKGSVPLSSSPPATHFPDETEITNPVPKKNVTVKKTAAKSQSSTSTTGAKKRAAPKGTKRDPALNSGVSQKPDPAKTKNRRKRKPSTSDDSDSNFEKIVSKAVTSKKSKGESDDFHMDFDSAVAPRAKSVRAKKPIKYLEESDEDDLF

Usually pIC50 stands for the IC50 on a negative log10 scale, so that one unit is a factor of ten. Turning to `CCCCCCCCCCCC(O)CC(=O)N[C@@H](C)C(=O)N[C@@H](CO)C(=O)N[C@@H](C)C(=O)Nc1ccc(-c2nc(-c3nc(C(=O)N[C@@H](CC(N)=O)C(=O)Nc4ccc(C(=O)Nc5ccc(C(=O)Nc6ccc(C(=O)O)cc6)c(O)c5OC(C)C)cc4)cs3)cs2)cc1` (stereo partly drawn) [Lapcin, 4-(4-(4-((2S)-4-amino-2-(2'-(4-((2S)-2-((2S)-3-hydroxy-2-((2S)-2-(3-hydroxytetradecanamido)propanamido)propanamido)propanamido)phenyl)-[2,4'-bithiazole]-4-carboxamido)-4-oxobutanamido)benzamido)-2-hydroxy-3-isopropoxybenzamido)benzoic acid], the “fold more potent than etoposide, topoisomerase II” value in test [1] is ~15 times. The pIC50 in test [1] (kDNA, 1 U enzyme, 30 min, 37 °C, gel, ethidium bromide, n = 3) is 5.12; in test [2], 9.01; in test [3], 10.77; in test [4], 8.58; in test [5], 9.30; in test [7], < 4.69. The “accumulation of cleavage product, Topo I” value in test [6] is “did not observe the accumulation of a cleavage product”.
